What follows are molecules tested against T1, Na+-dependent bile acid transportation system (intestinal bile acid transportation system in the terminal small intestine) (Oryctolagus cuniculus, UniProt Q28727) (assay: Inhibition of Na+-dependent [3H]-taurocholate uptake in brush border membrane vesicles of the ileum of rabbits). Conditions: quotient of IC50Na of reference taurochenedeoxycholate (TCDC) and IC50Na of test substance; rabbit ileum brush border membrane vesicles; 50 μM taurocholate.
T1 construct: from tissue; host or cells: brush border membrane vesicles from the terminal 7/10 of the small intestine (ileum) of male New Zealand rabbits
T1 sequence (Q28727 1-347): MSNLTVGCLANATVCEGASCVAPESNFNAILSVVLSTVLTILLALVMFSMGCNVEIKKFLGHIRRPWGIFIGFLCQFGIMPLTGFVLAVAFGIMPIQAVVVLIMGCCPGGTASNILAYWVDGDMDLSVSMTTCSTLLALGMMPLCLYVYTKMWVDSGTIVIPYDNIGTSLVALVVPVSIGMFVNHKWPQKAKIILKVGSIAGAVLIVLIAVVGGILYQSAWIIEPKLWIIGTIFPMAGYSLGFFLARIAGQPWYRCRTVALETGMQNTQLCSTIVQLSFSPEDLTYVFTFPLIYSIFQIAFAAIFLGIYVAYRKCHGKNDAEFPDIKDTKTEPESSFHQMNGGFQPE
Format: biochemical
Method: Biological testing of the compounds of the present invention was carried out by determining the inhibition of [^3 H]-taurocholate uptake in brush border membrane vesicles of the ileum of rabbits. The inhibition test was carried out as follows:
1. Preparation of brush border membrane vesicles from the ileum of rabbits
Preparation of brush border membrane vesicles from the intestinal cells of the small intestine was carried out by the so-called Mg^2+ precipitation method. Male New Zealand rabbits (2 to 2.5 kg of body weight) were sacrificed by intravenous injection of 0.5 ml of T61®, an aqueous solution of 2.5 mg of tetracaine HCl, 100 mg of embutramide and 25 mg of mebezonium iodide. The small intestine was removed and rinsed with ice-cold physiological saline solution. The terminal 7/10 of the small intestine (measured in the oral-rectal direction, i.e., the terminal ileum, which contains the active Na^+ -dependent bile acid transportation system) was used for preparation of the brush border membrane vesicles. The intestines were frozen at -80° C. in plastic bags under nitrogen.
For preparation of the membrane vesicles, the frozen intestines were thawed at 30° C. in a water-bath. The mucosa was scraped off and suspended in 60 ml of ice-cold 12 mM TRIS/HCl buffer (pH 7.1)/300 mM mannitol, 5 mM EGTA/10 mg/l of phenylmethylsulfonyl fluoride/1 mg/l of trypsin inhibitor from soybeans (32 U/mg)/0.5 mg/l of trypsin inhibitor from the bovine lung (193 U/mg)/5 mg/l of bacitracin. After dilution to 300 ml with ice-cold distilled water, the mixture was homogenized with an Ultraturrax (18-rod, IKA Werk Staufen, Germany) at 75% of the maximum for 3 minutes, while cooling with ice. After addition of 3 ml of 1 M MgCl2 solution (final concentration 10 mM), the mixture was left to stand at 0° C. for exactly 1 minute. By addition of Mg^2+, the cell membranes aggregated, and precipitated with the exception of the brush border membranes. After centrifugation at 3000× g (5000 rpm, SS-34 rotor) for 15 minutes, the precipitate was discarded and the supernatant, which contained the brush border membrane, was centrifuged at 48,000× g (20,000 rpm, SS-34 rotor) for 30 minutes. The supernatant was discarded and the precipitate was rehomogenized in 60 ml of 12 mM TRIS/HCl buffer (pH 7.1)/60 mM mannitol, 5 mM EGTA with a Potter Elvejhem homogenizer (Braun, Melsungen, 900 rpm, 10 strokes). After addition of 0.1 ml of 1 M MgCl2 solution and an incubation time of 15 minutes at 0° C., the mixture was centrifuged again at 3000× g for 15 minutes. The supernatant was then centrifuged again at 48,000× g (20,000 rpm, SS-34 rotor) for 30 minutes. The precipitate was taken up in 30 ml of 10 mM TRIS/HEPES buffer (pH 7.4)/300 mM mannitol and resuspended homogeneously by 20 strokes in a Potter Elvejhem homogenizer at 1000 rpm. After centrifugation at 48,000× g (20,000 rpm, SS-34 rotor) for 30 minutes, the precipitate was taken up in 0.5 to 2 ml of TRIS/HEPES buffer (pH 7.4)/280 mM mannitol (final concentration 20 mg/ml) and resuspended with the aid of a tuberculin syringe with a 27-gauge needle. The vesicles were either used directly for transportation studies after the preparation or stored at -196° C. in 4 mg portions in liquid nitrogen.
2. Inhibition of the Na^+ -dependent [^3 H]taurocholate uptake in brush border membrane vesicles of the ileum
The uptake of substrates in the brush border membrane vesicles described above was determined by means of the so-called membrane filtration technique. 10 μl of the vesicle suspension (100 μg of protein) were pipetted as drops onto the wall of a polystyrene incubation tube (11×70 mm), which contained the incubation medium with the corresponding ligands (90 μl). […]
For `CC(CCC(=O)O)C1CCC2C3C(O)CC4CC(NC(=O)CCC(=O)NC(CCCCNC(=O)OC(C)(C)C)C(=O)Nc5ccccc5C(Nc5ccccn5)C(c5ccccn5)C(O)c5ccccc5)CCC4(C)C3CC(O)C12C` (centres unmarked) [Example 1j], the “IC5ONa -TCDC (μmol)/ IC50Na -compound (μmol)” value (“IC5ONa -TCDC (μmol)/ IC50Na” below) was 1.51. For `CC(CCC(=O)NCCS(=O)(=O)O)C1CCC2C3C(O)CC4CC(NC(=O)CCC(=O)NC(CCCCNC(=O)OC(C)(C)C)C(=O)Nc5ccccc5C(Nc5ccccn5)C(c5ccccn5)C(O)c5ccccc5)CCC4(C)C3CC(O)C12C` (centres unmarked) [Example 1k], the “IC5ONa -TCDC (μmol)/ IC50Na” value was 1.59. For `COC(=O)CCC(C)C1CCC2C3C(O)CC4CC(NC(=O)CCC(=O)NC(Cc5ccccc5)C(=O)N5CCCC5C(=O)Nc5ccccc5C(Nc5ccccn5)C(c5ccccn5)C(O)c5ccccc5)CCC4(C)C3CC(O)C12C` (centres unmarked) [Example 2d], the “IC5ONa -TCDC (μmol)/ IC50Na” value was 0.56. In the case of `CC(CCC(=O)O)C1CCC2C3C(O)CC4CC(NC(=O)CCC(=O)NC(Cc5ccccc5)C(=O)N5CCCC5C(=O)Nc5ccccc5C(Nc5ccccn5)C(c5ccccn5)C(O)c5ccccc5)CCC4(C)C3CC(O)C12C` (centres unmarked) [Example 2e], the “IC5ONa -TCDC (μmol)/ IC50Na” value was 1.96. In the case of `C[C@H](CCC(=O)Nc1ccccc1[C@@H](Nc1ccccn1)[C@H](c1ccccn1)[C@H](O)c1ccccc1)[C@H]1CC[C@H]2[C@@H]3[C@H](O)C[C@@H]4C[C@H](O)CC[C@]4(C)[C@H]3C[C@H](O)[C@]12C` [Example 4], the “IC5ONa -TCDC (μmol)/ IC50Na” value was 0.50. In the case of `C[C@H](CCC(=O)O)[C@H]1CC[C@H]2[C@@H]3[C@H](O)C[C@@H]4C[C@@H](NC(=O)CCC(=O)Nc5ccc(C(Nc6ccccn6)C(c6ccccn6)C(O)c6ccccc6)cc5)CC[C@]4(C)[C@H]3C[C@H](O)[C@]12C` (some centres unmarked) [Example 7], the “IC5ONa -TCDC (μmol)/ IC50Na” value was 0.15. For `CC(CCC(=O)O)C1CC[C@H]2[C@@H]3[C@H](O)C[C@@H]4C[C@@H](NC(=O)CCC(=O)Nc5ccccc5C(Nc5ccccn5)C(c5ccccn5)C(O)c5ccccc5)CC[C@]4(C)[C@H]3C[C@H](O)[C@]12C` (some centres unmarked) [Example 8], the “IC5ONa -TCDC (μmol)/ IC50Na” value was 0.91. With `COC(=O)CCC(C)C1CCC2C3C(O)CC4CC(NC(=O)CCC(=O)NCCCCC(N)C(=O)Nc5ccccc5C(Nc5ccccn5)C(c5ccccn5)C(O)c5ccccc5)CCC4(C)C3CC(O)C12C` (centres unmarked) [Example 9] the “IC5ONa -TCDC (μmol)/ IC50Na” value was 2.02. For `CC(CCC(=O)O)C1CCC2C3C(O)CC4CC(NC(=O)CCC(=O)NCCCCC(N)C(=O)Nc5ccccc5C(Nc5ccccn5)C(c5ccccn5)C(O)c5ccccc5)CCC4(C)C3CC(O)C12C` (centres unmarked) [Example 10], the “IC5ONa -TCDC (μmol)/ IC50Na” value was 1.63. For `CC(CCC(=O)O)C1CCC2C3C(O)CC4CC(NC(=O)CCC(=O)NC(CCCCNC(=O)OC(C)(C)C)C(=O)Nc5ccccc5C(Nc5ccccn5)C(c5ccccn5)C(O)c5ccccc5)CCC4(C)C3CC(O)C12C` (centres unmarked) [Example 12], the “IC5ONa -TCDC (μmol)/ IC50Na” value was 2.58. For `CC(CCC(=O)NCC(=O)O)C1CCC2C3C(O)CC4CC(NC(=O)CCC(=O)NC(CCCCNC(=O)OC(C)(C)C)C(=O)Nc5ccccc5C(Nc5ccccn5)C(c5ccccn5)C(O)c5ccccc5)CCC4(C)C3CC(O)C12C` (centres unmarked) [Example 14], the “IC5ONa -TCDC (μmol)/ IC50Na” value was 1.52.
